# Values quoted from earlier work as cited in patent US20120237901A1, “Denture Adhesive Remover for Intraoral and Extraoral Use” (priority 2011, published 2012).
# Columns and labels:
# mold = conditions: 5% solution of acetic acid in water; reportedly
# bacteria = conditions: 5% solution of acetic acid in water; reportedly
smiles,measurement,setting,value
CC(=O)O [acetic acid],effective against mold,mold,90%
same,effective against bacteria,bacteria,99.9%
